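Briefly, cells in 96-well plates were exposed to five compound concentrations for 48 h, and endpoints were estimated by linear interpolation. GI50 = concentration required for 50% inhibition of growth.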 The source made the active and inactive calls. No stated cut-off is given here; in the data, active = GI50 up to about 1.1 µM and inactive = higher.
How the values were obtained:
Experiment in all cases: inhibition of tumour cell growth, NCI panel, 48 h
[1] = test system: UACC-257
[2] = test system: DU-145
[3] = test system: NCI-H460
[4] = test system: NCI-H522
[5] = test system: HOP-92
[6] = test system: MOLT-4
[7] = test system: UO-31
[8] = test system: RPMI-8226
[9] = test system: COLO 205
[10] = test system: HL-60
[11] = test system: SNB-19
[12] = test system: A549
[13] = test system: MDA-MB-435
[14] = test system: M14
[15] = test system: MDA-MB-231
[16] = test system: K562
[17] = test system: TK-10
[18] = test system: SK-OV-3

SMILES | GI50 [1] | GI50 [2] | GI50 [3] | GI50 [4] | GI50 [5] | GI50 [6] | GI50 [7] | GI50 [8] | GI50 [9] | GI50 [10] | GI50 [11] | GI50 [12] | GI50 [13] | GI50 [14] | GI50 [15] | GI50 [16] | GI50 [17] | GI50 [18]
COc1c(/C=C/C(C)(C)O)cc(C2CC(=O)c3c(O)cc(O)cc3O2)cc1CC=C(C)C (stereo not drawn) | 8.3 µM (inactive) | 9.06 µM (inactive) | 8.73 µM (inactive) | 9.27 µM (inactive) | 10.3 µM (inactive) | 11.7 µM (inactive) | 0.762 µM (active) | 10.8 µM (inactive) | 9.35 µM (inactive) | 12.8 µM (inactive) | 10.6 µM (inactive) | 9.75 µM (inactive) | 8.02 µM (inactive) | 8.45 µM (inactive) | 8.22 µM (inactive) | 10.7 µM (inactive) | 8.67 µM (inactive) | 7.83 µM (inactive)
CCCCC(=O)OC[n+]1cccc(-c2c(COC(=O)NC(C)C)c(COC(=O)NC(C)C)c3n2CCC3)c1 | 44.7 µM (inactive) | 25.8 µM (inactive) | 15 µM (inactive) | 23 µM (inactive) | 26.3 µM (inactive) | 8.93 µM (inactive) | 27 µM (inactive) | 30 µM (inactive) | 72.8 µM (inactive) | 10.7 µM (inactive) | > 92.3 µM (inactive) | 81.1 µM (inactive) | 64.9 µM (inactive) | 40.5 µM (inactive) | 62.5 µM (inactive) | 38.6 µM (inactive) | 42.1 µM (inactive) | > 57.8 µM (inactive)
O=C(NC(O)(C(F)(F)F)C(F)(F)F)c1ccccc1 | > 100 µM (inactive) | > 100 µM (inactive) | > 100 µM (inactive) | > 100 µM (inactive) | > 100 µM (inactive) | > 100 µM (inactive) | > 100 µM (inactive) | > 100 µM (inactive) | > 100 µM (inactive) | > 100 µM (inactive) | > 100 µM (inactive) | > 100 µM (inactive) | > 100 µM (inactive) | > 100 µM (inactive) | > 100 µM (inactive) | > 100 µM (inactive) | > 100 µM (inactive) | > 100 µM (inactive)
C/C(=N\NC(=S)NCCCNC(=S)N/N=C(\C)c1ccccn1)c1ccccn1 | 2.75 µM (inactive) | 2.26 µM (inactive) | 1.29 µM (inactive) | 1.37 µM (inactive) | 6.73 µM (inactive) | 2.51 µM (inactive) | 1.83 µM (inactive) | 4.2 µM (inactive) | 1.8 µM (inactive) | 1.35 µM (inactive) | > 34.8 µM (inactive) | 3.48 µM (inactive) | 3.23 µM (inactive) | 0.733 µM (active) | 6.21 µM (inactive) | 4.06 µM (inactive) | 0.619 µM (active) | 2.01 µM (inactive)
O=C(OCc1ccccc1)N(CCCCN(CCCNCc1ccccc1)C(=O)OCc1ccccc1)CCCNCc1ccccc1 | 0.36 µM (active) | 1.27 µM (inactive) | 0.188 µM (active) | 0.647 µM (active) | 0.12 µM (active) | 0.194 µM (active) | 1.38 µM (inactive) | 0.24 µM (active) | 0.262 µM (active) | 0.186 µM (active) | 0.431 µM (active) | 0.782 µM (active) | 0.242 µM (active) | 0.252 µM (active) | 0.885 µM (active) | 0.208 µM (active) | 1.58 µM (inactive) | 14.5 µM (inactive)
COc1ccc2c(c1)c1nn(CCN3CCCCC3)c3ccc4c(=O)n(CCN(C)C)c(=O)n2c4c13 | 0.244 µM (active) | < 0.01 µM (active) | < 0.01 µM (active) | < 0.01 µM (active) | 0.152 µM (active) | < 0.01 µM (active) | < 0.0116 µM (active) | < 0.01 µM (active) | 0.148 µM (active) | 0.076 µM (active) | < 0.0138 µM (active) | < 0.01 µM (active) | < 0.0109 µM (active) | 0.0188 µM (active) | < 0.0119 µM (active) | < 0.01 µM (active) | 0.029 µM (active) | 0.565 µM (active)
Cc1ccc(SC2=C(N(C)C)C(=O)c3ccccc3C2=O)cc1 | 1.91 µM (inactive) | 10.7 µM (inactive) | 6.3 µM (inactive) | 1.22 µM (inactive) | 4.71 µM (inactive) | 0.82 µM (active) | 10.1 µM (inactive) | 2.54 µM (inactive) | 20.8 µM (inactive) | 0.38 µM (active) | 12.3 µM (inactive) | 12.6 µM (inactive) | 0.444 µM (active) | 3.27 µM (inactive) | 4.24 µM (inactive) | 0.383 µM (active) | 7.43 µM (inactive) | 10.7 µM (inactive)
CC(C)=CC(O)C/C(C)=C/CC/C(C)=C/CCC1(C)C(CCCO)/C(=C(/C)C=O)CCC1(C)O (stereo not drawn) | 31.5 µM (inactive) | 57 µM (inactive) | 25.6 µM (inactive) | 39.7 µM (inactive) | 22.8 µM (inactive) | 24.7 µM (inactive) | 33.7 µM (inactive) | 21.3 µM (inactive) | 32.7 µM (inactive) | 23 µM (inactive) | 97.7 µM (inactive) | 28.4 µM (inactive) | 31 µM (inactive) | 26.1 µM (inactive) | 24.7 µM (inactive) | 2.99 µM (inactive) | 30.3 µM (inactive) | 47.8 µM (inactive)
Cn1c(-c2c(C3=CC(=O)N(c4ccccc4)C3=O)c3ccccc3n2C)cc2ccccc21 | > 100 µM (inactive) | > 100 µM (inactive) | > 100 µM (inactive) | 50 µM (inactive) | > 100 µM (inactive) | 58.7 µM (inactive) | > 100 µM (inactive) | 92.7 µM (inactive) | > 100 µM (inactive) | 45.1 µM (inactive) | > 100 µM (inactive) | > 100 µM (inactive) | > 100 µM (inactive) | > 100 µM (inactive) | > 100 µM (inactive) | 69.2 µM (inactive) | > 100 µM (inactive) | 4.38 µM (inactive)
O=S1OC[C@H](CCCl)O1 (stereo partly drawn) | > 100 µM (inactive) | > 100 µM (inactive) | > 100 µM (inactive) | > 100 µM (inactive) | > 100 µM (inactive) | > 100 µM (inactive) | > 100 µM (inactive) | > 100 µM (inactive) | > 100 µM (inactive) | > 100 µM (inactive) | > 100 µM (inactive) | > 100 µM (inactive) | > 100 µM (inactive) | > 100 µM (inactive) | > 100 µM (inactive) | > 100 µM (inactive) | > 100 µM (inactive) | > 100 µM (inactive)
c1ccc(CN2CCC(CNc3ncnc4ccccc34)C2)cc1 (stereo not drawn) |  | > 100 µM (inactive) | 44.3 µM (inactive) | 23 µM (inactive) | 34.8 µM (inactive) | 34.4 µM (inactive) | 63.1 µM (inactive) | 9.02 µM (inactive) | 29.5 µM (inactive) | 25.8 µM (inactive) | > 100 µM (inactive) | > 100 µM (inactive) | 45 µM (inactive) | 17.3 µM (inactive) | > 100 µM (inactive) | 23 µM (inactive) | 44.5 µM (inactive) | > 100 µM (inactive)
CN(C)/N=C1/CCC(C(F)(F)F)(C(F)(F)F)O1 |  | 47 µM (inactive) | 41 µM (inactive) | 35.2 µM (inactive) | 32.7 µM (inactive) | 37.2 µM (inactive) | 28.4 µM (inactive) | 31.5 µM (inactive) | 16.7 µM (inactive) | 28.3 µM (inactive) | 41.8 µM (inactive) | 37.5 µM (inactive) | 27.5 µM (inactive) | 25.1 µM (inactive) | 25.4 µM (inactive) | 40.7 µM (inactive) | 51.4 µM (inactive) | 38.3 µM (inactive)
COc1cc(/C=C2\N=C(c3ccccc3)N(c3nc4c(OC)ccc(OC)c4s3)C2=O)cc(OC)c1OC | 55.6 µM (inactive) | > 100 µM (inactive) | > 100 µM (inactive) | 35.7 µM (inactive) | > 100 µM (inactive) | 35.2 µM (inactive) | > 100 µM (inactive) | 43 µM (inactive) | 30.4 µM (inactive) | 30.4 µM (inactive) | > 100 µM (inactive) | > 100 µM (inactive) | 31.3 µM (inactive) | > 100 µM (inactive) | > 100 µM (inactive) | 34.8 µM (inactive) | > 100 µM (inactive) | > 100 µM (inactive)
CC[C@@]1(O)C(=O)OCc2c1cc1n(c2=O)Cc2c-1nc1ccccc1c2/C=N/NC(=O)c1ccc(N)cc1 | 6.44 µM (inactive) | 0.0383 µM (active) | 0.0796 µM (active) | < 0.0405 µM (active) | 0.0447 µM (active) | 0.0111 µM (active) | 0.258 µM (active) | 1.52 µM (inactive) | 4.53 µM (inactive) | 0.0327 µM (active) | 0.0175 µM (active) | 0.578 µM (active) | 0.197 µM (active) | 0.0585 µM (active) | 3.06 µM (inactive) | 0.075 µM (active) | 15.6 µM (inactive) | 0.158 µM (active)
CN(C)/C=N/c1cc(=O)n(C)c(=O)n1C | > 100 µM (inactive) | > 100 µM (inactive) | > 100 µM (inactive) | > 100 µM (inactive) | > 100 µM (inactive) | > 100 µM (inactive) | > 100 µM (inactive) | > 100 µM (inactive) | > 100 µM (inactive) | > 100 µM (inactive) | > 100 µM (inactive) | > 100 µM (inactive) | > 100 µM (inactive) | > 100 µM (inactive) | > 100 µM (inactive) | > 100 µM (inactive) | > 100 µM (inactive) | > 100 µM (inactive)
